From patent US20140357688A1, “METHOD FOR INHIBITING EZH2 EXPRESSION IN BREAST CANCER CELLS” (Yung Shin Pharm. Ind. Co., Ltd., priority 2013, published 2014) come the findings set out here.

What all share (type): cell-based, human
Test [1] deals with EZH2. The test can be described thus: Western blot of EZH2 protein expression in MDA-MB-468 cells. The conditions noted are these: for effect of inhibitor on YC-1-induced EZH2 inhibition: inhibitor pretreatment, then 3 μM YC-1 for 6 h. As to the method: Cells were harvested and performed with western blotting analysis. […] The levels of protein expression were quantitated and shown under blots. (C) Cells were transfected with EZH2 shRNA for 0, 1, 2, 3, and 4 days and collected for determination of cell viability (left) and protein expression (right). (D)(E) After 4 days of EZH2 knockdown, cells were incubated with 3 μM YC-1 for 4 h and detected cell viability (D) and protein contents (E). (F) Tumor specimens were isolated and protein was extracted for western blot analysis.
Cells were lysed in PBS containing proteinase inhibitor and phosphatase inhibitors and sonication. Protein concentration was measured using the Bio-Rad protein assay kit (Bio-Rad Laboratories, Hercules, Calif., USA). Lysate protein was separated by electrophoresis of SDS-PAGE and transferred to Immobilon P membrane (EMD Millipore). The membranes were incubated with appropriate primary antibodies and horseradish peroxidase-conjugated secondary antibodies (EMD Millipore). The signaling was visualized using Chemiluminescence substrate kit (EMD Millipore) and collected by the Luminesence image analyzer, LAS4000 (Fuji Photo Film Co., Tokyo, Japan). The band intensities were analyzed and quantified by the Multi Gauge software (Fuji Photo Film).
A general note: In western blotting, separated proteins are transferred to a membrane and probed.

Test [2] relates to MDA-MB-468. The test can be described thus: MTT cell viability assay. The conditions noted are these: for effect of inhibitor on YC-1-induced inhibition of cell viability: inhibitor pretreatment, then 3 μM YC-1 for 6 h. The protocol: (A) Cells were treated with indicated concentration of YC-1 for 6, 24, and 48 h. Cell viability was determined by MTT method. (B) MDA-MB-468 cells were treated with 3 μM YC-1 for 0, 6, and 12 h, and then stained with fluorescence diacetate (FDA) and propidium iodide (PI). Cell morphology was assessed by fluorescence microscopy with magnification ×20 (upper 3 rows) or ×40 (lowest row). (C) MDA-MB-468 cells were treated with 3 μM YC-1 for 24 h, cells were lysed and subjected to western blot analysis described in Materials and Methods. β-actin is a loading control. Blots were representative of results from three independent experiments. (D) Cells were treated with vehicle (DMSO, as control) or 3 μM YC-1 for 6 h. The cell cycles were analyzed by flow cytometry. (E) Cells were treated with indicated concentration of YC-1 and then performed with clonogenic assay.
Human breast cancer cells, MDA-MB-468, MDA-MB-157, MDA-MB-231, MDA-MB-453, and Hs578T, and immortalized mammary epithelial cell lines, 184A1 and MCF-10A, were obtained from American Type Culture Collection (Manassas, Va., USA). MDA-MB-468, MDA-MB-157, MDA-MB-231, and MDA-MB-453 were cultured in DMEM/F12 medium supplemented with 10% FBS, 100 U/ml penicillin, and 100 μg/ml streptomycin. Hs578T was cultured in RPMI 1640 medium containing 10% FBS, 2 mM L-glutamine, 100 U/ml penicillin, and 100 μg/ml streptomycin. 184A1 and MCF-10A were cultured in DMEM/F12 medium supplemented with 5% horse serum, 0.5 μg/ml hydrocortisone, 10 μg/ml insulin, 20 ng/ml epidermal growth factor, 0.1 μg/ml cholera enterotoxin, 2 mM L-glutamine, 100 U/ml penicillin, and 100 μg/ml streptomycin. All cells were maintained in a humidified incubator containing 5% CO2. For hypoxia treatment, cells were incubated in a chamber flushed with 1% 02, 5% CO2, and 94% N2 at 37° C.
Cell viability was measured by 3-(4,5-Dimethyl-2-thiazolyl)2,5-diphenyl-2H-tetrazolium bromide (MTT) assay.
A general note: Tetrazolium dyes change colour on reduction, which living cells bring about.

The subject of test [3] is EZH2. Briefly: EZH2 ubiquitination assay. The following applies: inhibitor pretreatment, then 3 μM YC-1. The protocol:
(A) Cells were pretreated with cyclohexamide (30 μM) for 1 h and followed by induction with vehicle (DMSO) or YC-1 (3 μM) for indicated time. Cells were harvested for detection of protein expression. (B)(C) Cells were incubated with 3 μM YC-1 for 6 h in the presence of vehicle, 3 μM MG-132 or 30 μM NH4Cl. Cells were harvested for detection of protein expression (B) or cell viability assay (C). The levels of protein expression were quantitated and shown under blots. (D) After treatment of 3 μM YC-1 for indicated time, cells were harvested and lysed for immunoprecipitation and western blot analysis described in Materials and Methods.
Cells were lysed with MLB buffer (25 mM HEPES, pH 7.5, 150 mM NaCl, 1% Igepal CA-630, 10 mM MgCl2, 1 mM EDTA, 2% glycerol, 1 mM Na3VO4, 1 mM NaF, 1 mM PMSF, 10 μg/ml of leupeptin, aprotinin, and pepstatin A). After sonication, cell lysates were centrifugated at 12,000×g for 10 min at 4° C. Supernatants were incubated with anti-EZH2 antibody (BD Biosciences) and protein A Sepharose beads (GE Health Care) overnight at 4° C. After washing with MLB buffer, precipitated proteins were boiled in 1× Laemmli sample buffer and then separated with SDS-PAGE. The ubiquitination levels of EZH2 were recognized by using anti-Ubiquitn monoclonal antibody.

Test [4] deals with EZH2-c-Cbl-ERK. The test can be described thus: Co-immunoprecipitation of c-Cbl and EZH2. The following applies: PD98059 10 μM with MG-132, then 2 h 3 μM YC-1. The protocol:
(A) c-Cbl knockdown MDA-MB-468 cells were treated with 3 μM YC-1 for 4 h. Cell were harvested for detection of protein expression. (B) Cells were treated with 3 μM YC-1 for indicated time. Cells were collected and c-Cbl phosphorylation was detected. (C) Cells were pretreated with MG-132 (3 μM) or NH4Cl (30 μM) for 1 h followed by 3 μM YC-1 induction for 6 h. (D) Cells were pretreated with MG-132 and followed by 3 μM YC-1 induction for indicated time. Cells were harvested and lysed for immunoprecipitation assay. The association between c-Cbl and EZH2 were determined by western blotting analysis and probed with anti-EZH2 or anti-c-Cbl antibody. Membranes were stripped and reprobed with anti-c-Cbl or anti-EZH2 antibody to check the input. (E) Cells were preincubated with or without PD98059 (10 μM) in the presence of MG-132 for 1 h prior to 2 h-treatment of 3 μM YC-1. Then cells were collected and lysate protein was subjected for the detection of the c-Cbl-EZH2 complexes.
Cells were lysed with RIPA buffer (50 mM Tris-C1, pH 7.5, 1% Igepal CA-630, 150 mM NaCl, 1 mM EDTA, 1 mM Na3VO4, 1 mM NaF, 1 mM PMSF, 10 μg/ml of leupeptin, aprotinin, and pepstatin A) for 30 min at 4° C. One milligram of cell lysate was incubated with anti-EZH2 or anti-c-Cbl antibody and protein A-Sepharose beads, then gently rotated at 4° C. overnight. […]

For test [5], the system named is c-Cbl. Briefly: Western blot of c-Cbl phosphorylation and expression. The following applies: pretreatment 1 h, then 3 μM YC-1 for 6 h. As to the method:
(A) c-Cbl knockdown MDA-MB-468 cells were treated with 3 μM YC-1 for 4 h. Cell were harvested for detection of protein expression. (B) Cells were treated with 3 μM YC-1 for indicated time. Cells were collected and c-Cbl phosphorylation was detected. […] (D) Cells were pretreated with MG-132 and followed by 3 μM YC-1 induction for indicated time. Cells were harvested and lysed for immunoprecipitation assay. The association between c-Cbl and EZH2 were determined by western blotting analysis and probed with anti-EZH2 or anti-c-Cbl antibody. Membranes were stripped and reprobed with anti-c-Cbl or anti-EZH2 antibody to check the input. […] Then cells were collected and lysate protein was subjected for the detection of the c-Cbl-EZH2 complexes. Cells were lysed in PBS containing proteinase inhibitor and phosphatase inhibitors and sonication. Protein concentration was measured using the Bio-Rad protein assay kit (Bio-Rad Laboratories, Hercules, Calif., USA). Lysate protein was separated by electrophoresis of SDS-PAGE and transferred to Immobilon P membrane (EMD Millipore). The membranes were incubated with appropriate primary antibodies and horseradish peroxidase-conjugated secondary antibodies (EMD Millipore). The signaling was visualized using Chemiluminescence substrate kit (EMD Millipore) and collected by the Luminesence image analyzer, LAS4000 (Fuji Photo Film Co., Tokyo, Japan). The band intensities were analyzed and quantified by the Multi Gauge software (Fuji Photo Film).

Peptide text beside a SMILES is read from it. * marks the point of attachment. Cbz = O=C(OCc1ccccc1)*

As to `CCCC[C@@H](C)/C=C(C)/C=C(\C)C(=O)NC1=C[C@@](O)(/C=C/C=C/C=C/C(=O)NC2=C(O)CCC2=O)[C@@H]2O[C@@H]2C1=O` [manumycin A], the “effect of inhibitor on YC-1-induced EZH2 inhibition” value in test [1] is on record as “failed to influent”.
With `CC[C@H](CO)Nc1nc(NCc2ccccc2)c2ncn(C(C)C)c2n1` [roscovitine], in test [2], the “effect of inhibitor on YC-1-induced inhibition of cell viability” value (“effect of inhibitor … of cell viability” for short) was “failed to modulate”. The “effect of inhibitor on YC-1-induced EZH2 inhibition” value in test [1] is given as “failed to modulate”.
With `COc1cccc(-c2cc(=O)c3ccccc3o2)c1N` [PD98059], the “effect of inhibitor … of cell viability” value in test [2] is on record as “almost completely abolished”. The “effect of inhibitor on YC-1-induced EZH2 inhibition” value in test [1] is “almost completely abolished”. The “effect of inhibitor on YC-1-induced EZH2 ubiquitination” value in test [3] is listed as “could be blocked”. The “effect of inhibitor on EZH2-c-Cbl-ERK complex” value in test [4] is on record as “could be disrupted”.
In the case of `O=c1c(-c2ccc(O)cc2)coc2cc(O)cc(O)c12` [genistein], the “effect of inhibitor … of cell viability” value in test [2] is given as “attenuated”. Further, the “effect of inhibitor on YC-1-induced EZH2 inhibition” value in test [1] was “attenuated”. Moreover, in test [3], the “effect of inhibitor on YC-1-induced EZH2 ubiquitination” value is given as “significantly suppressed”.
Regarding `O=c1onc2n1-c1cc(Br)ccc1OC2` [NS2028], in test [2], the “effect of inhibitor … of cell viability” value is “failed to have effects”. For the same compound, in test [1], the “effect of inhibitor on YC-1-induced EZH2 inhibition” value was “failed to have effects”.
Take `CC(C)=CCC/C(C)=C/CC/C(C)=C/CSc1ccccc1C(=O)O` [farnyesyl thiosalicylic acid]: in test [1], the “effect of inhibitor on YC-1-induced EZH2 inhibition” value is on record as “had no effect”.
With `COc1cc2ncnc(Nc3ccc(Oc4ccccc4)cc3)c2cc1OC` [SrcI], the “effect of inhibitor … of cell viability” value in test [2] is recorded as “attenuated”. Moreover, the “effect of inhibitor on YC-1-induced EZH2 inhibition” value in test [1] is reported as “attenuated”. Also, in test [3], the “effect of inhibitor on YC-1-induced EZH2 ubiquitination” value is “significantly suppressed”.
Regarding `Cl.N` [NH4Cl, reference compound], the “effect of inhibitor on YC-1-induced EZH2 inhibition” value in test [1] was “not”. The “effect of inhibitor on YC-1-induced inhibition of c-Cbl” value in test [5] is given as “not”.
As to `Nc1nccc2c1ncn2[C@@H]1C=C(CO)[C@@H](O)[C@H]1O` [DZNep, 3-deazaneplanocin A], the “activation of apoptosis / cell viability” value in test [2] (DZNep, 24 h, ten folds of concentration higher than YC-1) is “failed to inhibit EZH2 and activate apoptosis”. Further, the EZH2 inhibition entry in test [1] (DZNep 3, 10, 30 μM, 24 h, ten folds of concentration higher than YC-1) was “failed to inhibit EZH2”.
With `CNC(=O)c1cc(Oc2ccc(NC(=O)Nc3ccc(Cl)c(C(F)(F)F)c3)cc2)ccn1` [Bay-43-9006], the “effect of inhibitor … of cell viability” value in test [2] is “attenuated”. Besides, the “effect of inhibitor on YC-1-induced EZH2 inhibition” value in test [1] is recorded as “attenuated”. In addition, the “effect of inhibitor on YC-1-induced EZH2 ubiquitination” value in test [3] is “significantly suppressed”.
For `O=c1onc2cnc3ccccc3n12` [ODQ], the “effect of inhibitor … of cell viability” value in test [2] is reported as “failed to have effects”. Further, the “effect of inhibitor on YC-1-induced EZH2 inhibition” value in test [1] was “failed to have effects”.
For the compound `COC(=O)[C@@]1(OC)C[C@H]2O[C@]1(C)n1c3ccccc3c3c4c(c5c6ccccc6n2c5c31)C(=O)N(C)C4` [KT5823], in test [2], the “effect of inhibitor … of cell viability” value is given as “failed to have effects”. In test [1], the “effect of inhibitor on YC-1-induced EZH2 inhibition” value was “failed to have effects”.
Consider `CC(C)C[C@@H](C=O)NC(=O)[C@H](CC(C)C)NC(=O)[C@H](CC(C)C)NC(=O)OCc1ccccc1` [MG-132] (Cbz-Leu-Leu-Leu-aldehyde), for which the “effect of inhibitor … of cell viability” value in test [2] is reported as “reversed the YC-1-induced inhibition of cell viability”. Besides, in test [1], the “effect of inhibitor on YC-1-induced EZH2 inhibition” value was “significantly prevented EZH2 degradation”. In test [5], the “effect of inhibitor on YC-1-induced inhibition of c-Cbl” value was “could be reversed”.
With `COc1cc2ncnc(Nc3cccc(Cl)c3)c2cc1OC` [AG1478], in test [1], the “effect of inhibitor on YC-1-induced EZH2 inhibition” value was “not affected”. Besides, the “effect of inhibitor on YC-1-induced EZH2 ubiquitination” value in test [3] is reported as “not”.
